From paper PMC7686308, “Overcoming the blood–brain barrier by Annexin A1-binding peptide to target brain tumours” (British Journal of Cancer, 2020)
Peptide text beside a SMILES is read from it.

Tests used:
human MC16 peptide = experiment: Plate binding assay to human MC16 peptide; conditions: biotinylated IF7C(RR) 1 μg/mL, MC16 10 nmoles coated, peroxidase-streptavidin
Experimental: (§1) We next assessed IF7 binding to recombinant human ANXA1 protein and human MC16 peptide in three ways (Fig. 2a-c). First, we added biotinylated IF7 in solution to plastic wells coated with monomeric MC16 and determined IF7 binding by peroxidase-conjugated streptavidin and a peroxidase colour reaction (Fig. 2a). […] Thus, we modelled the ANXA1 dimer using the Zdock module for protein–protein docking.[26] The IF7 docking pose was calculated to be −3.7 kcal/mol (Fig. 2d).
(§2) Fig. 2 Binding of IF7 to the ANXA1 N-terminal domain and full-length ANXA1 protein in vitro. a Plate binding assay of N-terminal biotinylated IF7C(RR) to human MC16 peptide and its mutants. Each synthetic MC16 and its mutant peptide (10 nmoles) was bound to maleimide-activated plastic well through its C-terminal cysteine residue. Biotinylated IF7C(RR) peptide (1 μg/mL) was added to each well and binding of biotinylated peptide was detected by peroxidase-conjugated streptavidin and peroxidase colour reaction. b FCS analysis of IF7 with ANXA1 (left) and with MC16 peptides (right) in solution. […] The proposed model was further validated by dG scoring, which was calculated using MOE software with GBVI/WSA, a program allows us to compare calculated and observed energetics.[59] The IF7 docking pose was calculated to be −3.7 kcal/mol.

[1] = test system: MC16 mutant peptides F7A, K9A and E15A; experiment: Plate binding assay to MC16 mutant peptides; set-up: species or system human; conditions: biotinylated IF7C(RR) 1 μg/mL, mutant peptide 10 nmoles coated
Experimental: as §1, §2

mouse MC16 = experiment: Plate binding assay to mouse MC16 peptide
Experimental: as §2
Fig. 3 Targeting of IF7 to the brain tumour vasculature in vivo in the mouse. a Binding of IF7 and control peptides to mouse and human MC16 peptides by plate assay. Biotinylated IF7C(RR) and control C(RR) was assessed for their binding to MC16 in a similar manner as in Fig. 2a. b Targeting of fluorescent-labelled IF7 peptide to the brain tumour vasculature in the mouse. […] Blue fluorescence (left panels) represents nuclear Hoechst 33342 and green fluorescence (right) represents Alexa 488. […]

[2] = test system: ANXA1 exhibiting a free N-terminus; experiment: FCS binding to ANXA1 with free N-terminus; set-up: species or system human; conditions: IF7C-A546, 37 °C, 1 h, increase in diffusion time
Experimental: (§3) A mixture of IF7C-A546 with Anxa1 or MC16 (50 μl) was loaded into each well of a 96-well plate and incubated at 37 °C for 1 h. FCS was performed with the MF20 analytical system (Olympus) using a 543 nm He–Ne laser for illumination. Each sample was measured five times with a data acquisition time of 10 sec per measurement. IF7C(RR) binding was defined as an increase in translational diffusion time relative to a control.
as §2

[3] = test system: N-terminally His-tagged ANXA1; experiment: FCS binding to N-terminally His-tagged ANXA1; set-up: species or system human; conditions: IF7C-A546, 37 °C, 1 h, diffusion time
Experimental: as §3, §2

tetrameric MC16 = experiment: FCS binding to tetrameric MC16; set-up: species or system human; conditions: IF7C-A546, 37 °C, 1 h, diffusion time
monomeric MC16 = experiment: FCS binding to monomeric MC16; set-up: species or system human; conditions: IF7C-A546, 37 °C, 1 h, diffusion time
Experimental: as §3, §2

[4] = Histology of tumours from mice injected with IF7; type: in vivo, mouse; conditions: histological analysis, data not shown
[5] = test system: ANXA1 with a free N-terminus; conditions: plate binding analysis; cited from earlier work
Text: (§4) We next assessed IF7 binding to recombinant human ANXA1 protein and human MC16 peptide in three ways (Fig. 2a-c). First, we added biotinylated IF7 in solution to plastic wells coated with monomeric MC16 and determined IF7 binding by peroxidase-conjugated streptavidin and a peroxidase colour reaction (Fig. 2a). […] Second, we assessed binding of IF7 and MC16 in solution by fluorescence correlation spectrometry (FCS) ( ...

[6] = test system: N-terminally His-Tagged ANXA1; conditions: plate binding analysis; cited from earlier work
Text: as §4

[7] = test system: subcutaneous colon tumours; conditions: mouse, in vivo; cited from earlier work

With `CC[C@H](C)[C@H](N)C(=O)N[C@@H](Cc1ccccc1)C(=O)N[C@@H](CC(C)C)C(=O)N[C@@H](CC(C)C)C(=O)N[C@@H](Cc1c[nH]c2ccccc12)C(=O)N[C@@H](CCC(N)=O)C(=O)N[C@@H](CCCNC(=N)N)C(=O)N[C@@H](CS)C(=O)N[C@@H](CCCNC(=N)N)C(=O)N[C@@H](CCCNC(=N)N)C(=O)O` [IF7] (H-IFLLWQRCRR-OH; N-terminus and C-terminus assumed) the “IF7 binding to MC16” value (human MC16 peptide) was “IF7 bound to WT MC16”, the “IF7 binding to MC16 mutants” value [1] was “binding was significantly reduced” and the “binding to human and mouse MC16 compared” value (mouse MC16; Fig. 3a, human versus mouse MC16) was “IF7 bound both human and mouse MC16 peptides equally”. For the same compound, the “binding to mouse MC16” value (mouse MC16; biotinylated IF7C(RR), in a similar manner as in Fig. 2a) was “IF7 binding to N-terminal domain of mouse MC16 was confirmed”, the “binding in solution to untagged ANXA1” value [2] was “IF7 bound to ANXA1 exhibiting a free N-terminus” and the “binding in solution to N-terminally His-tagged ANXA1” value [3] was “not to N-terminally His-tagged ANXA1”. The “binding in solution to tetrameric MC16” value (tetrameric MC16) was “IF7 bound to tetrameric rather than monomeric MC16”, the “binding in solution to MC16 monomer” value (monomeric MC16) was “the diffusion time of IF7 with MC16 monomer did not increase” and the “signs of inflammation in tumours” value [4] was “did not reveal signs of inflammation”. For the same compound, the “plate binding to ANXA1 with free N-terminus” value [5] was “IF7 bound ANXA1 with a free N-terminus”, the “plate binding to N-terminally His-Tagged ANXA1” value [6] was “not N-terminally His-Tagged ANXA1” and the “fluorescent signals 15 min after i.v. injection” value [7] was “fluorescent signals are seen in vesicles at mostly the basal side of vasculature”. The “fluorescent signals 40 min after i.v. injection” value [7] was “fluorescence is seen in the stroma and in tumour cells”.
